Patent publication US20240051936A1, “ISOINDOLINONE COMPOUNDS” (Monte Rosa Therapeutics, Inc., priority 2021, published 2024)
Read-outs that look alike come from different tables or passages of the source.

What was measured:
[1] = molecular target: Full length wild-type cereblon CRBN (Homo sapiens (Human), UniProt Q96SW2); experiment: Fluorescence polarization (FP) assay, cereblon binding
Outline: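 Full-length wild-type CRBN (80.0 nM) preincubated 30 min RT with compound (300–0.937 or 3000–9.3 nM, 12 points) in 20 mM HEPES pH 8.0, 150 NaCl, 0.5 mM TCEP, 0.05% Tween 20. Probe added at 5 nM final; FP read after 12 h (ex 590/em 675 nm), normalized to DMSO for IC50.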

[2] = molecular target: GSPT1 (Homo sapiens (Human), UniProt P15170+Q96SW2); experiment: Immunofluorescence assay for GSPT1 degradation in CAL-Si cells; format: cell-based
GSPT1, sequence (P15170 whole entry): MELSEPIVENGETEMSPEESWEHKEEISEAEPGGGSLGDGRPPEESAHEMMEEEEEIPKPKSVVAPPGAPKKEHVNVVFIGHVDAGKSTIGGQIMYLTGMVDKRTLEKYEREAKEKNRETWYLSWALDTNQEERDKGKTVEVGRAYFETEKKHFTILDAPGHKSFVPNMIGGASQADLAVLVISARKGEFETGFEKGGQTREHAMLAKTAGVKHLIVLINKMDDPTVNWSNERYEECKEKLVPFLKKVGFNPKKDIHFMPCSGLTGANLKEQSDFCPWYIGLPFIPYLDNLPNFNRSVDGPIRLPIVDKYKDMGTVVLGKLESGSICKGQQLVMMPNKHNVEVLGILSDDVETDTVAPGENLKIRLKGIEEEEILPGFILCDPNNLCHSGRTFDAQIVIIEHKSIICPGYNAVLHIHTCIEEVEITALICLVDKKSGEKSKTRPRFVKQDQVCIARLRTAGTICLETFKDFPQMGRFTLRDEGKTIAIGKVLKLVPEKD
GSPT1, sequence (Q96SW2 whole entry): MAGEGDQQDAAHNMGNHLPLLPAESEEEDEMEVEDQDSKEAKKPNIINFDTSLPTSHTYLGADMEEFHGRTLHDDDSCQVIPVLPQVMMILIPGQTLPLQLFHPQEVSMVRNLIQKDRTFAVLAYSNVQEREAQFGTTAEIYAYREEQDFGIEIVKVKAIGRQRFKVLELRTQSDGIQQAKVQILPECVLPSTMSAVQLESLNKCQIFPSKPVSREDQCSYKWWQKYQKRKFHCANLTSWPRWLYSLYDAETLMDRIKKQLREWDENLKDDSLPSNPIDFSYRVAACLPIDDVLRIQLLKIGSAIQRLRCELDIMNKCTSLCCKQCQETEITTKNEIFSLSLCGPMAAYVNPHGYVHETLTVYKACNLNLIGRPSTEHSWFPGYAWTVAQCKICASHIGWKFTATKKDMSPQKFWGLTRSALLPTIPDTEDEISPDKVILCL
GSPT1, sequence (Q16531 whole entry partner): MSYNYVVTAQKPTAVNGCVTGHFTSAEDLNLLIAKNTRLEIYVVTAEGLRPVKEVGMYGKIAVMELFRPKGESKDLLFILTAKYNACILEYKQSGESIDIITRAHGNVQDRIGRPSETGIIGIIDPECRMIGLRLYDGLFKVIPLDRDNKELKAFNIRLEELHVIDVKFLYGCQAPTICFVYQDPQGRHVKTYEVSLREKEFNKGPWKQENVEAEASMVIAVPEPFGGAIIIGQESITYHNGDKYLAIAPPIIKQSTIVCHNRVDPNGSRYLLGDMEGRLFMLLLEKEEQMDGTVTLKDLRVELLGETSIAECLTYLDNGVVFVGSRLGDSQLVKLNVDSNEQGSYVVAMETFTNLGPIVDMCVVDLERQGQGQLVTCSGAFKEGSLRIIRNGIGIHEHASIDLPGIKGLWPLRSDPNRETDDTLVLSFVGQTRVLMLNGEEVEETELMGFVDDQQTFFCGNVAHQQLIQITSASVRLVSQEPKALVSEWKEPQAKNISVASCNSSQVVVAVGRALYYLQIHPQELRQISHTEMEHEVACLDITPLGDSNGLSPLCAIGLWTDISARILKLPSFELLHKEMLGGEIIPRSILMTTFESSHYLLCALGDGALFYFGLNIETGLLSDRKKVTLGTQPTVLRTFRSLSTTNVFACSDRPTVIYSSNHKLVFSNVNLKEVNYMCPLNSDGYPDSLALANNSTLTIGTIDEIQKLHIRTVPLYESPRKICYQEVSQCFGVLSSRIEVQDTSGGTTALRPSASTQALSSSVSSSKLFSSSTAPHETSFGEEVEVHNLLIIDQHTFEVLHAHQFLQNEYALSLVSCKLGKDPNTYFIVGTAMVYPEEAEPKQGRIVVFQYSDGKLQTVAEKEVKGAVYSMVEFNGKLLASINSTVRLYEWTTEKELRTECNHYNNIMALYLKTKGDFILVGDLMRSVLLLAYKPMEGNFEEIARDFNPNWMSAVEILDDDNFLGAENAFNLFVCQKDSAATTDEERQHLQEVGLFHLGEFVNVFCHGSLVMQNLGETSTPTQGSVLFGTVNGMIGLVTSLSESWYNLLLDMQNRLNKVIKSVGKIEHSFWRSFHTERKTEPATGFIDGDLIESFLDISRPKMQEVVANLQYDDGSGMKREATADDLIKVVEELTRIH
Outline: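 CAL-Si cells on fibronectin were treated for 6 h with serial dilutions (30 μM to 0.1 nM). After fixation, GSPT1 was immunostained and imaged by high-content analysis, with DAPI/actin cell segmentation giving mean GSPT1 intensity per cell. DC50 came from nonlinear regression after normalization to controls.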

[3] = molecular target: CRBN (Homo sapiens (Human), UniProt Q96SW2); experiment: HTRF binding of compounds to CRBN; conditions: read-out: HTRF Class (HTRF IC50, Cereblon binding)
CRBN, sequence (Q96SW2 whole entry, species assumed): as the sequence (Q96SW2 whole entry) above

[4] = wild-type CRBN 80.0 nM, probe 5 nM, FP measured after 12 hours, read-out: rFP IC50
[5] = CAL-Si cells, compounds with code A, read-out: DC50 value code
[6] = CAL-Si cells, treated 6 hours, read-out: Code, activity for GSPT1 degradation (DC50)
[7] = Table 4, read-out: IF Class (ability for GSPT1 degradation)

Full length wild-type cereblon CRBN, sequence (Q96SW2 whole entry): as above

IC50 [3] [nM] | DC50 [2, 7] [nM] | IC50 ([1]; cereblon binding, bound, read-out: IC50 value) [nM] | Structure (SMILES) | IC50 [1, 4] [nM] | DC50 [2, 5] [nM] | DC50 [2, 6] [nM]
> 1000 | > 300 | – | Cc1ccc(NC(=O)OCc2ccc3c(c2Cl)C(=O)N(C2CCC(=O)NC2=O)C3)cc1Cl (stereo not drawn) [Compound 72, (4-chloro-2-(2,6-dioxopiperidin-3-yl)-3-oxoisoindolin-5-yl)methyl(3-chloro-4-methylphenyl) carbamate] | – | – | –
100 to 1000 | < 30 | – | CC1(c2ccc(NC(=O)OCc3cc(F)c4c(c3)C(=O)N(C3CCC(=O)NC3=O)C4)cn2)CC1 (stereo not drawn) [Compound 75, (2-(2,6-dioxopiperidin-3-yl)-7-fluoro-3-oxoisoindolin-5-yl)methyl(6-(1-methylcyclopropyl)pyridin-3-yl)carbamate] | – | – | –
– | – | < 600 | CC1CCCCN1c1ccc(NC(=O)OCc2cc(F)c3c(c2)C(=O)N(C2CCC(=O)NC2=O)C3)cn1 (stereo not drawn) [Compound 16, (2-(2,6-dioxopiperidin-3-yl)-7-fluoro-3-oxoisoindolin-5-yl)methyl (6-(2-methylpiperidin-1-yl)pyridin-3-yl)carbamate] | 600 to 1200 | < 30 | < 30

Structure (SMILES) | IC50 [3] [nM] | DC50 [2, 7] [nM] | IC50 ([1]; cereblon binding, bound, read-out: IC50 value) [nM] | IC50 [1, 4] [nM] | DC50 [2, 5] [nM] | DC50 [2, 6] [nM]
Cc1ccc(NC(=O)OCc2ccc3c(c2F)C(=O)N(C2CCC(=O)NC2=O)C3)cc1Cl (stereo not drawn) [Compound 71, (2-(2,6-dioxopiperidin-3-yl)-4-fluoro-3-oxoisoindolin-5-yl)methyl(3-chloro-4-methylphenyl)carbamate] | 100 to 1000 | – | – | > 1900 | < 30 | < 30
